Experimental data published in US20120321590A1, “BRIDGED POLYCYCLIC COMPOUNDS” (priority 2011, published 2012).
Like-named read-outs stand apart in the source and are kept apart here.

Key:
Format in all cases: cell-based, HCV
[1] = tested on: genotype 1b (Con1) dicistronic subgenomic replicon; experiment: Transient replicon assay, genotype 1b; conditions: Huh7-Lunet cells transfected with replicon RNA, cultured 4 days, luciferase activity
Experimental: (§1) The transient replicon assay utilizes the genotype 1b (Con1) dicistronic subgenomic replicon. Genotype 1a activity was determined using a chimeric replicon containing the genotype 1b sequence for NS3 through NS5A nonstructural proteins and genotype 1a (H77) sequence for the NS5B region.
(§2) The RNA transcripts were generated using the Megascript T7 kit (Applied Biosystems, Foster City, Calif.). Exponentially growing Huh7-Lunet cells were mixed with 4 μg of replicon RNA and plated into a 96-well plate Gene Pulser MXcell Electroporation System (Bio-Rad, Hercules, Calif.). Electroporation was immediately performed at 250 V and 750 μF capacitance with a single exponential waveform pulse. Transfected cells were transferred to Dulbecco modified Eagle medium in the presence of 10% FBS and plated into 96-well plates with 7,500 cells per well. Compounds at various concentrations were added to the cells after 2 hours and were cultured for 4 days. The cells were lysed with the Bright-Glo Reagent (Promega, Madison, Wis.) and luciferase activity was measured with a luminometer (Wallac 1420 Multilabel HTS Counter Victor 2). The background control was replicon cells treated with 100 nM BILN-2061, an inhibitor of the HCV protease. Dose responses were performed in triplicate and the values were averaged. All experiments were repeated at least three times to verify the reproducibility.
(§3) The EC50 values were determined using a standard four-parameter dose response equation.

[2] = Transient replicon assay, genotype 1a chimeric replicon; conditions: Hepatitis C virus, genotype 1a / genotype 1b, Huh-7, 96 h, read-out: EC50 1a, Huh7-Lunet cells transfected with chimeric replicon RNA, cultured 4 days, luciferase activity
Experimental: as §1, §2, §3

[3] = tested on: chimeric replicon containing the genotype 1b sequence for NS3 through NS5A and genotype 1a (H77) sequence for the NS5B region; experiment: as above
Experimental: as §1, §2, §3

[4] = read-out: EC50 1a; Huh7-Lunet cells transfected with chimeric replicon RNA, cultured 4 days, luciferase activity

SMILES | EC50 ([1]; Hepatitis C virus, Huh-7, 96 h) [nM] | EC50 [2] [nM] | EC50 [1] [nM] | EC50 ([3]; Huh7-Lunet cells transfected with chimeric replicon RNA, cultured 4 days, luciferase activity; read-out: EC50 1a) [nM] | EC50 [3, 4] [nM]
CS(=O)(=O)Nc1ccc2c(c1)S(=O)(=O)N=C(C1=C(O)[C@@H]3C4C5C6CC7C4C7C(C65)[C@@H]3N(Cc3ccc(F)cc3)C1=O)N2 (racemic) [Example 1, rac-N-{3-[(4S,9R)-5-[(4-Fluorophenyl)methyl]-8-hydroxy-6-oxo-5-azahexacyclo[8.5.0.0^2,15.0^3,12.0^4,9.0^11,13]pentadec-7-en-7-yl]-1,1-dioxo-4H-1λ^6,2,4-benzothiadiazin-7-yl}methanesulfonamide] | 2 | 12 |  |  | 
CS(=O)(=O)NCc1csc2c1S(=O)(=O)N=C(C1=C(O)[C@@H]3C4C5C6CC7C4C7C(C65)[C@@H]3N(Cc3ccc(F)cc3)C1=O)N2 (racemic) [Example 4, rac-N-({3-[(4S,9R)-5-[(4-Fluorophenyl)methyl]-8-hydroxy-6-oxo-5-azahexacyclo[8.5.0.0^2,15.0^3,12.0^4,9.0^11,13]pentadec-7-en-7-yl]-1,1-dioxo-4H-1λ^6,5,2,4-thieno[2,3-e][1λ^6,2,4]thiadiazin-7-yl}methyl)methanesulfonamide] |  |  | 1 | 42 | 
CS(=O)(=O)Nc1ccc2c(c1)S(=O)(=O)N=C(C1=C(O)[C@@H]3C4CC5CC(C4)CC(C5)[C@@H]3N(Cc3ccc(F)cc3)C1=O)N2 (racemic) [Example 5, rac-N-{3-[(2S,7R)-3-[(4-Fluorophenyl)methyl]-6-hydroxy-4-oxo-3-azatetracyclo[8.3.1.1^8,12.0^2,7]pentadec-5-en-5-yl]-1,1-dioxo-4H-1λ^6,2,4-benzothiadiazin-7-yl}methanesulfonamide] | 11 | 193 |  |  | 
CS(=O)(=O)NCc1csc2c1S(=O)(=O)N=C(C1=C(O)[C@@H]3C4CC5CC(C4)CC(C5)[C@@H]3N(Cc3ccc(F)cc3)C1=O)N2 (racemic) [Example 6, rac-N-({3-[(2S,7R)-3-[(4-Fluorophenyl)methyl]-6-hydroxy-4-oxo-3-azatetracyclo[8.3.1.1^8,12.0^2,7]pentadec-5-en-5-yl]-1,1-dioxo-4H-1λ^6,5,2,4-thieno[2,3-e][1λ^6,2,4]thiadiazin-7-yl}methyl)methanesulfonamide] | 42 | 696 |  |  | 
CS(=O)(=O)Nc1ccc2c(c1)S(=O)(=O)N=C(C1=C(O)[C@@H]3C4C5CC6C4C6C5[C@@H]3N(Cc3ccc(F)cc3)C1=O)N2 (mixture of isomers) [Example 7, rac-N-{3-[(1R,9S)-10-[(4-Fluorophenyl)methyl]-13-hydroxy-11-oxo-10-azapentacyclo[7.4.0.0^2,7.0^3,5.0^4,8]tridec-12-en-12-yl]-1,1-dioxo-4H-1λ^6,2,4-benzothiadiazin-7-yl}methanesulfonamide] | 4 |  |  |  | 137
CS(=O)(=O)Nc1ccc2c(c1)S(=O)(=O)N=C(C1=C(O)[C@@H]3C4C5CC6C4C6C5[C@@H]3N(Cc3ccc(F)cc3)C1=O)N2 (mixture of isomers) [Example 8, rac-N-{3-[(1R,9S)-10-[(4-Fluorophenyl)methyl]-13-hydroxy-11-oxo-10-azapentacyclo[7.4.0.0^2,7.0^3,5.0^4,8]tridec-12-en-12-yl]-1,1-dioxo-4H-1λ^6,2,4-benzothiadiazin-7-yl}methanesulfonamide] |  |  | 4 |  | 336
CS(=O)(=O)NCc1csc2c1S(=O)(=O)N=C(C1=C(O)[C@@H]3C4C5CC6C4C6C5[C@@H]3N(Cc3ccc(F)cc3)C1=O)N2 (mixture of isomers) [Example 9, rac-N-({3-[(1R,9S)-10-[(4-Fluorophenyl)methyl]-13-hydroxy-11-oxo-10-azapentacyclo[7.4.0.0^2,7.0^3,5.0^4,8]tridec-12-en-12-yl]-1,1-dioxo-4H-1λ^6,5,2,4-thieno[2,3-e][1λ^6,2,4]thiadiazin-7-yl}methyl)methanesulfonamide] | 5 | 171 |  |  | 
CS(=O)(=O)Nc1ccc2c(c1)S(=O)(=O)N=C(C1=C(O)C3C4C5C6C7C4C7C(C56)C3N(Cc3ccc(F)cc3)C1=O)N2 (racemic) [Example 10, rac-N-{3-[(1R,10S)-11-[(4-Fluorophenyl)methyl]-14-hydroxy-12-oxo-11-azahexacyclo[8.4.0.0^2,70.0^3,5.0^4,9.0^6,8]tetradec-13-en-13-yl]-1,1-dioxo-4H-1λ^6,2,4-benzothiadiazin-7-yl}methanesulfonamide] | 1 | 8 |  |  | 
CS(=O)(=O)NCc1csc2c1S(=O)(=O)N=C(C1=C(O)C3C4C5C6C7C4C7C(C56)C3N(Cc3ccc(F)cc3)C1=O)N2 (racemic) [Example 13, rac-N-({3-[(1R,10S)-11-[(4-Fluorophenyl)methyl]-14-hydroxy-12-oxo-11-azahexacyclo[8.4.0.0^2,7.0^3,5.0^4,9.0^6,8]tetradec-13-en-13-yl]-1,1-dioxo-4H-1λ^6,5,2,4-thieno[2,3-e][1λ^6,2,4]thiadiazin-7-yl}methyl)methanesulfonamide] | 2 | 36 |  |  | 
CS(=O)(=O)Nc1ccc2c(c1)S(=O)(=O)N=C(C1=C(O)C3C4C5C6C4C4C6C5C4C3N(Cc3ccc(F)cc3)C1=O)N2 (racemic) [Example 14, rac-N-{3-[(1R,10S)-11-[(4-fluorophenyl)methyl]-14-hydroxy-12-oxo-11-azahexacyclo[8.4.0.0^2,5.0^3,8.0^4,7.0^6,9]tetradec-13-en-13-yl]-1,1-dioxo-4H-1λ^6,2,4-benzothiadiazin-7-yl}methanesulfonamide] | 2 | 43 |  |  | 
CS(=O)(=O)NCc1csc2c1S(=O)(=O)N=C(C1=C(O)C3C4C5C6C4C4C6C5C4C3N(Cc3ccc(F)cc3)C1=O)N2 (racemic) [Example 15, rac-N-({3-[(1R,10S)-11-[(4-fluorophenyl)methyl]-14-hydroxy-12-oxo-11-azahexacyclo[8.4.0.0^2,5.0^3,8.0^4,7.0^6,9]tetradec-13-en-13-yl]-1,1-dioxo-4H-1λ^6,5,2,4-thieno[2,3-e][1λ^6,2,4]thiadiazin-7-yl}methyl)methanesulfonamide] | 13 |  |  |  | 
CS(=O)(=O)Nc1ccc2c(c1)S(=O)(=O)N=C(C1=C(O)[C@@H]3C4C5C6CC7C4C7C(C65)[C@@H]3N(Cc3ccc(F)cc3)C1=O)N2 [Example 2, N-{3-[(4S,9R)-5-[(4-Fluorophenyl)methyl]-8-hydroxy-6-oxo-5-azahexacyclo[8.5.0.0^2,15.0^3,12.0^4,9.0^11,13]pentadec-7-en-7-yl]-1,1-dioxo-4H-1λ^6,2,4-benzothiadiazin-7-yl}methanesulfonamide] | 1 | 8 |  |  | 
CS(=O)(=O)Nc1ccc2c(c1)S(=O)(=O)N=C(C1=C(O)[C@H]3C4C5C6CC7C(C74)C(C65)[C@H]3N(Cc3ccc(F)cc3)C1=O)N2 [Example 3, N-{3-[(4R,9S)-5-[(4-Fluorophenyl)methyl]-8-hydroxy-6-oxo-5-azahexacyclo[8.5.0.0^2,15.0^3,12.0^4,9.0^11,13]pentadec-7-en-7-yl]-1,1-dioxo-4H-1λ^6,2,4-benzothiadiazin-7-yl}methanesulfonamide] | > 330 | > 330 |  |  | 
CS(=O)(=O)Nc1ccc2c(c1)S(=O)(=O)N=C(C1=C(O)[C@@H]3C4C5C6C7C4C7C(C65)[C@@H]3N(Cc3ccc(F)cc3)C1=O)N2 (stereo partly drawn) [Example 11, N-{3-[(1R,10S)-11-[(4-Fluorophenyl)methyl]-14-hydroxy-12-oxo-11-azahexacyclo[8.4.0.0^2,7.0^3,5.0^4,9.0^6,8]tetradec-13-en-13-yl]-1,1-dioxo-4H-1λ^6,2,4-benzothiadiazin-7-yl}methanesulfonamide] | 0.5 | 4 |  |  | 
CS(=O)(=O)Nc1ccc2c(c1)S(=O)(=O)N=C(C1=C(O)[C@H]3C4C5C6C7C(C74)C(C65)[C@H]3N(Cc3ccc(F)cc3)C1=O)N2 (stereo partly drawn) [Example 12] | > 330 | > 330 |  |  | 
CS(=O)(=O)Nc1ccc2c(c1)S(=O)(=O)N=C(C1=C(O)[C@@H]3CCC[C@@H]3N(Cc3ccc(F)cc3)C1=O)N2 [Example 17, reference compound] | 18 | 550 |  |  | 
CS(=O)(=O)Nc1ccc2c(c1)S(=O)(=O)N=C(C1=C(O)[C@@H]3[C@H]4CC[C@H](C4)[C@@H]3N(Cc3ccc(F)cc3)C1=O)N2 [Example 18, reference compound] | 2 | 45 |  |  | 
CS(=O)(=O)NCc1csc2c1S(=O)(=O)N=C(C1=C(O)[C@@H]3[C@H]4CC[C@H](C4)[C@@H]3N(Cc3ccc(F)cc3)C1=O)N2 [Example 19, reference compound] | 2 | 45 |  |  | 
CS(=O)(=O)Nc1ccc2c(c1)S(=O)(=O)N=C(C1=C(O)[C@@H]3C4CCC(CC4)[C@@H]3N(Cc3ccc(F)cc3)C1=O)N2 [Example 20, reference compound] | 0.6 | 12 |  |  | 
CS(=O)(=O)Nc1ccc2c(c1)S(=O)(=O)N=C(c1c(O)c3cccn3n(Cc3ccc(F)cc3)c1=O)N2 [Example 21, reference compound] | 13 | 400 |  |  | 
